Here are results for 20 molecules from patent US9850247B2 (Almac Discovery Limited, priority 2013, dated 2017).

Each structure is given as a SMILES string.

Data set [1] can be described thus: CLint estimates using human liver microsomes (Method 4). In kind it is in vitro ADME. The conditions noted are these: pH 7.4, 1 μM compound, read-out: Mics - CLint (HLM CLint). In short, it runs like this: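 Depletion measured by LC/MS/MS in MRM mode over 2–50 min after starting reactions with 1 mM NADPH. Incubations used 0.5 mg/mL human liver microsomal protein, 1 μM compound, 0.1% DMSO, pH 7.4 phosphate buffer, 37 °C. ln peak area plotted against time; the gradient gave t½ and intrinsic clearance.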

Data set [2] has as its system phospho-cdc2 (Tyr15) in HT-29 cells. Description: Effect on Cdc2 phosphorylation at Tyr15, Cell-Based ELISA Base Kit (Method 3). The conditions noted are these: Homo sapiens, HT-29, 8 h, eight hours incubation, normalized to total cdc2, read-out: HT29 pCDC2 method 3. The method in brief: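 HT-29 cells were treated with compounds for 8 h at 37 °C, then fixed in 4% formaldehyde. Phospho-cdc2 (Tyr15) and total cdc2 were read by dual-fluorogenic cell-based ELISA at 600/450 nm. Phospho signal was normalized to total cdc2 and expressed as % of DMSO control, and EC50 came from non-linear regression.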

Another data set has as its target T1, Wee-1 kinase (Homo sapiens, UniProt P30291).
T1 construct: purchased Invitrogen PV3817
The experiment in a line: Measurement of Wee-1 kinase activity (ADP-Glo luminescent kit). Type of data set: biochemical. In short, it runs like this:
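ADP-Glo luminescence reads ADP made over 1 h at RT, after an aliquot of 30 μM ATP and 2.0 μg/mL poly(Lys,Tyr 4:1) substrate. Before that, the kinase sat 30 min with inhibitor in Tris-HCl/MgCl2 buffer with BSA and DTT. IC50 came from regression of percent inhibition.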

T1 sequence (P30291 whole entry): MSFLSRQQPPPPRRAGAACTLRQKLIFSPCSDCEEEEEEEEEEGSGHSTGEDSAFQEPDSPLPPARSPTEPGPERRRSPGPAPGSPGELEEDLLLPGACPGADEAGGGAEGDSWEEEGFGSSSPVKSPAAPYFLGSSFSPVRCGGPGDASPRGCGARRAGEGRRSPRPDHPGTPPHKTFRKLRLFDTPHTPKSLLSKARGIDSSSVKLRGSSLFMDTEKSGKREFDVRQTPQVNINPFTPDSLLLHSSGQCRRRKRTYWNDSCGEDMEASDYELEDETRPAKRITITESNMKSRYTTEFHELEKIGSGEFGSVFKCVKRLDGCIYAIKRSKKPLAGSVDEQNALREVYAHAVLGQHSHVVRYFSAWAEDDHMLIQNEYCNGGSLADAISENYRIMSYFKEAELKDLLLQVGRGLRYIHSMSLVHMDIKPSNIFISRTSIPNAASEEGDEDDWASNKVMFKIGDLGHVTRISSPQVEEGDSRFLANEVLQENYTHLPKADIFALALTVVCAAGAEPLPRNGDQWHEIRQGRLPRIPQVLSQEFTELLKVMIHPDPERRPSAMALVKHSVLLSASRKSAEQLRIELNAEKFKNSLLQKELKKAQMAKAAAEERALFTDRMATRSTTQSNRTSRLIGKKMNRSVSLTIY

For `CC(=O)N1CCN(c2ccc(Nc3ncc4c(n3)N(C)CN(c3c(Cl)cccc3Cl)C4=O)cc2CN(C)C)CC1` [Example 144, 7-((4-(4-acetylpiperazin-1-yl)-3-((dimethylamino)methyl)phenyl)amino)-3-(2,6-dichlorophenyl)-1-methyl-2,3-dihydropyrimido[4,5-d]pyrimidin-4(1H)-one], the microsomal CLint at 1 μM in data set [1] is 15 to 50 µL/min/mg. For the same molecule, the EC50 in data set [2] was in the range of 100 to 1000 nM. For the same molecule, the IC50 at Wee-1 kinase was not above 10 nM.

As to `CC(C)N1CCN(c2ccc(Nc3ncc4c(n3)N(C)CN(c3c(F)cccc3Cl)C4=O)cc2CO)CC1` [Example 89, 3-(2-chloro-6-fluorophenyl)-7-((3-(hydroxymethyl)-4-(4-isopropylpiperazin-1-yl)phenyl)amino)-1-methyl-2,3-dihydropyrimido[4,5-d]pyrimidin-4(1H)-one], the microsomal CLint at 1 μM in data set [1] was not above 15 µL/min/mg. Besides, in data set [2], the EC50 was 100 to 1000 nM. Further, on Wee-1 kinase, the IC50 is not above 10 nM.

As to `CN1CN(c2c(Cl)cccc2Cl)C(=O)c2cnc(Nc3ccc(N4CCNC[C@H]4CO)cc3)nc21` [Example 127, (S)-3-(2,6-dichlorophenyl)-7-((4-(2-(hydroxymethyl)piperazin-1-yl)phenyl)amino)-1-methyl-2,3-dihydropyrimido[4,5-d]pyrimidin-4(1H)-one], the microsomal CLint at 1 μM in data set [1] was not above 15 µL/min/mg. In data set [2], the EC50 was not below 1000 nM. Moreover, the IC50 on Wee-1 kinase is not above 10 nM.

As to `Cc1cccc(Cl)c1N1CN(C)c2nc(Nc3ccc(N4CC5CCC(C4)N5C)c(CO)c3)ncc2C1=O` [Example 114, 3-(2-chloro-6-methylphenyl)-7-((3-(hydroxymethyl)-4-(8-methyl-3,8-diazabicyclo[3.2.1]octan-3-yl)phenyl)amino)-1-methyl-2,3-dihydropyrimido[4,5-d]pyrimidin-4(1H)-one], the microsomal CLint at 1 μM in data set [1] was not above 15 µL/min/mg. For the same molecule, the EC50 in data set [2] lay in the range of 100 to 1000 nM. Besides, the IC50 at Wee-1 kinase is not above 10 nM.

For the molecule `C[C@@H]1CN(c2ccc(Nc3ncc4c(n3)N(C)CN(c3c(Cl)cccc3Cl)C4=O)cc2CO)C[C@H](C)N1` [Example 158, 3-(2,6-dichlorophenyl)-7-((4-((3S,5R)-3,5-dimethylpiperazin-1-yl)-3-(hydroxymethyl)phenyl)amino)-1-methyl-2,3-dihydropyrimido[4,5-d]pyrimidin-4(1H)-one], in data set [1], the microsomal CLint at 1 μM was not above 15 µL/min/mg. Besides, the EC50 in data set [2] is 100 to 1000 nM. On Wee-1 kinase, the IC50 is not above 10 nM.

Consider `CN(C)CC(=O)N1CCN(c2ccc(Nc3ncc4c(n3)N(C)CN(c3c(Cl)cccc3Cl)C4=O)cc2CO)CC1` [Example 161, 3-(2,6-dichlorophenyl)-7-((4-(4-(2-(dimethylamino)acetyl)piperazin-1-yl)-3-(hydroxymethyl)phenyl)amino)-1-methyl-2,3-dihydropyrimido[4,5-d]pyrimidin-4(1H)-one], for which, in data set [1], the microsomal CLint at 1 μM is 15 to 50 µL/min/mg. Further, the EC50 in data set [2] was in the range of 100 to 1000 nM. Also, on Wee-1 kinase, the IC50 was not above 10 nM.

On to `COC[C@@H]1CN(c2ccc(Nc3ncc4c(n3)N(C)CN(c3c(Cl)cccc3Cl)C4=O)cc2)CCN1` [Example 61, (S)-3-(2,6-dichlorophenyl)-7-((4-(3-(methoxymethyl)piperazin-1-yl)phenyl)amino)-1-methyl-2,3-dihydropyrimido[4,5-d]pyrimidin-4(1H)-one], for which, in data set [1], the microsomal CLint at 1 μM is not above 15 µL/min/mg. In data set [2], the EC50 is 100 to 1000 nM. Besides, the IC50 on Wee-1 kinase was in the range of 10 to 100 nM.

Turning to `CN(C)Cc1cc(Nc2ncc3c(n2)N(C)CN(c2c(Cl)cccc2Cl)C3=O)ccc1N1CCOCC1` [Example 154, 3-(2,6-dichlorophenyl)-7-((3-((dimethylamino)methyl)-4-morpholinophenyl)amino)-1-methyl-2,3-dihydropyrimido[4,5-d]pyrimidin-4(1H)-one], the microsomal CLint at 1 μM in data set [1] was 15 to 50 µL/min/mg. For the same molecule, the EC50 in data set [2] was 100 to 1000 nM. The IC50 on Wee-1 kinase is not above 10 nM.

As for `CN1CN(c2c(Cl)cccc2Cl)C(=O)c2cnc(Nc3ccc(N4CCN(C)C(C)(C)C4)cc3)nc21` [Example 63, 3-(2,6-dichlorophenyl)-1-methyl-7-((4-(3,3,4-trimethylpiperazin-1-yl)phenyl)amino)-2,3-dihydropyrimido[4,5-d]pyrimidin-4(1H)-one], the microsomal CLint at 1 μM in data set [1] is 15 to 50 µL/min/mg. For the same molecule, in data set [2], the EC50 was 100 to 1000 nM. Besides, the IC50 at Wee-1 kinase was not above 10 nM.

Take `CNCc1cc(Nc2ncc3c(n2)N(C)CN(c2c(Cl)cccc2Cl)C3=O)ccc1N(C)C` [Example 153, 3-(2,6-dichlorophenyl)-7-((4-(dimethylamino)-3-((methylamino)methyl)phenyl)amino)-1-methyl-2,3-dihydropyrimido[4,5-d]pyrimidin-4(1H)-one]: in data set [1], the microsomal CLint at 1 μM is 15 to 50 µL/min/mg. Besides, in data set [2], the EC50 lay within 100 to 1000 nM. Moreover, on Wee-1 kinase, the IC50 is not above 10 nM.

With `CN1CCN(c2ccc(Nc3ncc4c(n3)N(C)CN(c3c(Cl)cccc3Cl)C4=O)cc2)CC1` [Example 117, 3-(2,6-dichlorophenyl)-1-methyl-7-((4-(4-methylpiperazin-1-yl)phenyl)amino)-2,3-dihydropyrimido[4,5-d]pyrimidin-4(1H)-one], in data set [1], the microsomal CLint at 1 μM was 15 to 50 µL/min/mg. Moreover, the EC50 in data set [2] lay in the range of 100 to 1000 nM. Also, the IC50 on Wee-1 kinase lay in the range of 10 to 100 nM.

For `[2H]C([2H])([2H])N1CN(c2c(Cl)cccc2Cl)C(=O)c2cnc(Nc3ccc(N4CCN[C@H](C)C4)cc3)nc21` [Example 78, (R)-3-(2,6-dichlorophenyl)-1-d3-methyl-7-((4-(3-methylpiperazin-1-yl)phenyl)amino)-2,3-dihydropyrimido[4,5-d]pyrimidin-4(1H)-one], in data set [1], the microsomal CLint at 1 μM is not above 15 µL/min/mg. The EC50 in data set [2] is 100 to 1000 nM. Also, the IC50 on Wee-1 kinase was not above 10 nM.

`CN1CN(c2c(Cl)cccc2Cl)C(=O)c2cnc(Nc3ccc(N4CCNCC4)c(CNCC(F)(F)F)c3)nc21` [Example 141, 3-(2,6-dichlorophenyl)-1-methyl-7-((4-(piperazin-1-yl)-3-(((2,2,2-trifluoroethyl)amino)methyl)phenyl)amino)-2,3-dihydropyrimido[4,5-d]pyrimidin-4(1H)-one]: in data set [1], the microsomal CLint at 1 μM is not above 15 µL/min/mg. Further, the EC50 in data set [2] was not below 1000 nM. The IC50 at Wee-1 kinase is not above 10 nM.

In the case of `CN1CN(c2c(Cl)cccc2Cl)C(=O)c2cnc(Nc3ccc(C4CCNCC4)c(CO)c3)nc21` [Example 167, 3-(2,6-dichlorophenyl)-7-((3-(hydroxymethyl)-4-(piperidin-4-yl)phenyl)amino)-1-methyl-2,3-dihydropyrimido[4,5-d]pyrimidin-4(1H)-one], the microsomal CLint at 1 μM in data set [1] was not above 15 µL/min/mg. For the same molecule, the EC50 in data set [2] was not below 1000 nM. At Wee-1 kinase, the concentration for half-maximal inhibition (IC50) was not above 10 nM.

Consider `CN(C)Cc1cc(Nc2ncc3c(n2)N(C)CN(c2c(Cl)cccc2Cl)C3=O)ccc1N1CCC(F)(F)CC1` [Example 150, 3-(2,6-dichlorophenyl)-7-((4-(4,4-difluoropiperidin-1-yl)-3-((dimethylamino)methyl)phenyl)amino)-1-methyl-2,3-dihydropyrimido[4,5-d]pyrimidin-4(1H)-one], for which, in data set [1], the microsomal CLint at 1 μM is not below 50 µL/min/mg. In addition, in data set [2], the EC50 fell in the range of 100 to 1000 nM. Moreover, the IC50 on Wee-1 kinase was 10 to 100 nM.

Turning to `C[C@@H]1CN(c2ccc(Nc3ncc4c(n3)N(C)CN(c3c(Cl)cccc3Cl)C4=O)cc2C(C)(C)O)CCN1` [Example 140, (R)-3-(2,6-dichlorophenyl)-7-((3-(2-hydroxypropan-2-yl)-4-(3-methylpiperazin-1-yl)phenyl)amino)-1-methyl-2,3dihydropyrimido [4,5-d]pyrimidin-4(1H)-one], the microsomal CLint at 1 μM in data set [1] is 15 to 50 µL/min/mg. In addition, the EC50 in data set [2] is not below 1000 nM. Moreover, the IC50 at Wee-1 kinase lay within 10 to 100 nM.

Turning to `CNCc1cc(Nc2ncc3c(n2)N(C)CN(c2c(Cl)cccc2Cl)C3=O)ccc1N1CCS(=O)(=O)CC1` [Example 146, 3-(2,6-dichlorophenyl)-7-((4-(1,1-dioxidothiomorpholino)-3-((methylamino)methyl)phenyl)amino)-1-methyl-2,3-dihydropyrimido[4,5-d]pyrimidin-4(1H)-one], the microsomal CLint at 1 μM in data set [1] was not above 15 µL/min/mg. In addition, the EC50 in data set [2] is not below 1000 nM. On Wee-1 kinase, the IC50 is not above 10 nM.

As to `CN1CCC(c2ccc(Nc3ncc4c(n3)N(C)CN(c3c(Cl)cccc3Cl)C4=O)cc2)CC1` [Example 95, 3-(2,6-dichlorophenyl)-1-methyl-7-((4-(1-methylpiperidin-4-yl)phenyl)amino)-2,3-dihydropyrimido[4,5-d]pyrimidin-4(1H)-one], the microsomal CLint at 1 μM in data set [1] was not above 15 µL/min/mg. Further, in data set [2], the EC50 was in the range of 100 to 1000 nM. The half-inhibitory concentration (IC50) at Wee-1 kinase is not above 10 nM.

In the case of `Cc1cc(Nc2ncc3c(n2)N(C)CN(c2c(F)cccc2Cl)C3=O)ccc1N1CCNCC1` [Example 55, 3-(2-chloro-6-fluorophenyl)-1-methyl-7-((3-methyl-4-(piperazin-1-yl)phenyl)amino)-2,3-dihydropyrimido[4,5-d]pyrimidin-4(1H)-one], the microsomal CLint at 1 μM in data set [1] was not above 15 µL/min/mg. Also, in data set [2], the EC50 fell in the range of 100 to 1000 nM. Also, the IC50 at Wee-1 kinase was not above 10 nM.

For `C[C@@H]1CN(c2ccc(Nc3ncc4c(n3)N(C)CN(c3c(Cl)cccc3Cl)C4=O)cc2C(O)C(F)F)CCN1` (stereo partly drawn) [Example 134, 3-(2,6-dichlorophenyl)-7-((3-(2,2-difluoro-1-hydroxyethyl)-4-((R)-3-methylpiperazin-1-yl)phenyl)amino)-1-methyl-2,3-dihydropyrimido[4,5-d]pyrimidin-4(1H)-one], in data set [1], the microsomal CLint at 1 μM is not above 15 µL/min/mg. The EC50 in data set [2] was in the range of 100 to 1000 nM. For the same molecule, on Wee-1 kinase, the IC50 is not above 10 nM.
